# Experimental data as given in publication PMC11864979, “First-in-class ultralong-target-residence-time p38α inhibitors as a mitosis-targeted therapy for colorectal cancer” (Nature Cancer, 2025).
# Where two headings read alike, the source gives them in different places.
# Experiments:
# Test in all cases: selectivity profiling in a panel of 340 wild-type kinases (Reaction Biology Europe)
# Type in all cases: binding
# 340 wild-type kinases [1] = biological target: T1, 340 wild-type kinases (Homo sapiens, UniProt Q96GD4)
# T1 construct: purchased Reaction Biology Europe
# 340 wild-type kinases [2] = biological target: T2, 340 wild-type kinases (Homo sapiens, UniProt P12931)
# T2 construct: purchased Reaction Biology Europe
# 340 wild-type kinases [3] = biological target: T3, 340 wild-type kinases (Homo sapiens, UniProt Q8N4C8)
# T3 construct: purchased Reaction Biology Europe
# 340 wild-type kinases [4] = biological target: T4, 340 wild-type kinases (Homo sapiens, UniProt Q13705)
# T4 construct: purchased Reaction Biology Europe
# 340 wild-type kinases [5] = biological target: T5, 340 wild-type kinases (Homo sapiens, UniProt P27037)
# T5 construct: purchased Reaction Biology Europe
# 340 wild-type kinases [6] = biological target: T6, 340 wild-type kinases (Homo sapiens, UniProt Q5TCX8)
# T6 construct: purchased Reaction Biology Europe
# 340 wild-type kinases [7] = biological target: T7, 340 wild-type kinases (Homo sapiens, UniProt P29597)
# T7 construct: purchased Reaction Biology Europe
# 340 wild-type kinases [8] = biological target: T8, 340 wild-type kinases (Homo sapiens, UniProt Q96L34)
# T8 construct: purchased Reaction Biology Europe
# T8 sequence (Q96L34 1-752): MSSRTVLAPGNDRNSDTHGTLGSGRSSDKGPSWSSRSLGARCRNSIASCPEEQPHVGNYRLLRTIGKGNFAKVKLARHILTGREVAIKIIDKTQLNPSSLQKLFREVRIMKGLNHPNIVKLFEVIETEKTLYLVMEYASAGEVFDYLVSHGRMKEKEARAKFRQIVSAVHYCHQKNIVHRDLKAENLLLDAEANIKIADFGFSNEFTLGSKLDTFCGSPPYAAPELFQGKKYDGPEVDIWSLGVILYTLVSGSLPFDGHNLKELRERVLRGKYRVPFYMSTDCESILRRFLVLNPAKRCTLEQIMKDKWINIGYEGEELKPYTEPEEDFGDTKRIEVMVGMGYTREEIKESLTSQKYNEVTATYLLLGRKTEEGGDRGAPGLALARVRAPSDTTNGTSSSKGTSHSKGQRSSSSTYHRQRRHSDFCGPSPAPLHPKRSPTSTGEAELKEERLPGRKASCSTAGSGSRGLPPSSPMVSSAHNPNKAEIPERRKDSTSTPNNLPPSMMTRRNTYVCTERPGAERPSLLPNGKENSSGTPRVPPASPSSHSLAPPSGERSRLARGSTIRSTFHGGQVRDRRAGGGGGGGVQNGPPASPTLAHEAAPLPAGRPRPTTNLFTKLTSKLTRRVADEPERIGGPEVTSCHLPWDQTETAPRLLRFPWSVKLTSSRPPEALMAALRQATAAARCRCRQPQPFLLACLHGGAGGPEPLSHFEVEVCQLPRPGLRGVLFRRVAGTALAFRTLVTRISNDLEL
# 340 wild-type kinases [9] = biological target: T9, 340 wild-type kinases (Homo sapiens, UniProt P41279)
# T9 construct: purchased Reaction Biology Europe
# 340 wild-type kinases [10] = biological target: T10, 340 wild-type kinases (Homo sapiens, UniProt Q8TD08)
# T10 construct: purchased Reaction Biology Europe
# T10 sequence (Q8TD08 1-544): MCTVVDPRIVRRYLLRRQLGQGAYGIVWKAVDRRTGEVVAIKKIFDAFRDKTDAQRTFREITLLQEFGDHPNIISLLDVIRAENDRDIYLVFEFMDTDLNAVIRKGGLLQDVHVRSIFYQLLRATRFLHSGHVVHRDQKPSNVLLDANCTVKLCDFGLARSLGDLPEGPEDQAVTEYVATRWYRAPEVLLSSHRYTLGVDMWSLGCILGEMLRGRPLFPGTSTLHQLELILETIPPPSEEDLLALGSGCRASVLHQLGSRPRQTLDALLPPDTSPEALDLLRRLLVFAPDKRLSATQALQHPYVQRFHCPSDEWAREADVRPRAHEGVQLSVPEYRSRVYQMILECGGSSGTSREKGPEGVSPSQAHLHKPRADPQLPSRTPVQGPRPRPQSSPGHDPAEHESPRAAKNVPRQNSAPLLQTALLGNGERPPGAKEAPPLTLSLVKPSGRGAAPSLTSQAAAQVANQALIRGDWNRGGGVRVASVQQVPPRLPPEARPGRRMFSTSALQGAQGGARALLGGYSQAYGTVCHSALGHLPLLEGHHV
# 340 wild-type kinases [11] = biological target: T11, 340 wild-type kinases (Homo sapiens, UniProt P19525)
# T11 construct: purchased Reaction Biology Europe
# T11 sequence (P19525 whole entry): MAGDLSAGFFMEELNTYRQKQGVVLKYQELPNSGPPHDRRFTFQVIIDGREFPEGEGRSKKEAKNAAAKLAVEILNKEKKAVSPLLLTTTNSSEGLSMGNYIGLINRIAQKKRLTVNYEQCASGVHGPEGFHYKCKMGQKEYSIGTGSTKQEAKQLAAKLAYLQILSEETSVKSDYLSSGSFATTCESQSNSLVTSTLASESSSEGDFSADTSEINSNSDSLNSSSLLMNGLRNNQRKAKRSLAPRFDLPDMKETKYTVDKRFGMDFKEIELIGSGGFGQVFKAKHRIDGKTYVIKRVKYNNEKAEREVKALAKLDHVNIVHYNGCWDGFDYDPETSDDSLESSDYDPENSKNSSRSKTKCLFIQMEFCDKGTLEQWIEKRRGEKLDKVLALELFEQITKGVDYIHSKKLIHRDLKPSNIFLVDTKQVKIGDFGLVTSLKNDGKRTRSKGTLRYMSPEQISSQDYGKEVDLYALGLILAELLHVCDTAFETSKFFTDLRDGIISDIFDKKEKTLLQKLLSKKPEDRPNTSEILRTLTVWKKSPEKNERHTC
# T2 sequence (P12931 whole entry): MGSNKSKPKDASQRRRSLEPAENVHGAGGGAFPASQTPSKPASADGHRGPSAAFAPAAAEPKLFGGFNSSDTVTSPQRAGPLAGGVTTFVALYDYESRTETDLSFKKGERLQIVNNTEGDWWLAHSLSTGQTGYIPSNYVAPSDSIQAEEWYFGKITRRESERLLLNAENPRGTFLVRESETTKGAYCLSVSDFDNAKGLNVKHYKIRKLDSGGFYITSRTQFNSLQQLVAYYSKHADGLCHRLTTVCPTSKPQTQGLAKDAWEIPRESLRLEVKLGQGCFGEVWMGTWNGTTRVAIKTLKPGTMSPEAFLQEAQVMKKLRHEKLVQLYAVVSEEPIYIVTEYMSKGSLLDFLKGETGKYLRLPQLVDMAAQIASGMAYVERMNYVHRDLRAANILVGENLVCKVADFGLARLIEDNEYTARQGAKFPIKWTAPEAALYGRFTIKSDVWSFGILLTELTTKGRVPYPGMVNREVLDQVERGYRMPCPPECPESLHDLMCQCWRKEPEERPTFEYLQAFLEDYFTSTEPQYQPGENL
# T5 sequence (P27037 20-513): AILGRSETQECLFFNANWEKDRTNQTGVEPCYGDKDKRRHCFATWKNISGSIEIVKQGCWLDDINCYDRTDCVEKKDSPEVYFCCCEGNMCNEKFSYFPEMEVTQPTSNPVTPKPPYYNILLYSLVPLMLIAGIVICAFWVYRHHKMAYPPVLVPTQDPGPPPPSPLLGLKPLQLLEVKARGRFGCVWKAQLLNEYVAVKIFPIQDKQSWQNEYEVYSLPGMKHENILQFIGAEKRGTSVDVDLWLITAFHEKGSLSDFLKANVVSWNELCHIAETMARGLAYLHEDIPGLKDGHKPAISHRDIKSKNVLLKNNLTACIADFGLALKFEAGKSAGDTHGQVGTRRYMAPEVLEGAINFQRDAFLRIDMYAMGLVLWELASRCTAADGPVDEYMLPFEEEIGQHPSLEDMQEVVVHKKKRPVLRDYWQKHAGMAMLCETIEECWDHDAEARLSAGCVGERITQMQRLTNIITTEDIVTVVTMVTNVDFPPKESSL
# T4 sequence (Q13705 19-512): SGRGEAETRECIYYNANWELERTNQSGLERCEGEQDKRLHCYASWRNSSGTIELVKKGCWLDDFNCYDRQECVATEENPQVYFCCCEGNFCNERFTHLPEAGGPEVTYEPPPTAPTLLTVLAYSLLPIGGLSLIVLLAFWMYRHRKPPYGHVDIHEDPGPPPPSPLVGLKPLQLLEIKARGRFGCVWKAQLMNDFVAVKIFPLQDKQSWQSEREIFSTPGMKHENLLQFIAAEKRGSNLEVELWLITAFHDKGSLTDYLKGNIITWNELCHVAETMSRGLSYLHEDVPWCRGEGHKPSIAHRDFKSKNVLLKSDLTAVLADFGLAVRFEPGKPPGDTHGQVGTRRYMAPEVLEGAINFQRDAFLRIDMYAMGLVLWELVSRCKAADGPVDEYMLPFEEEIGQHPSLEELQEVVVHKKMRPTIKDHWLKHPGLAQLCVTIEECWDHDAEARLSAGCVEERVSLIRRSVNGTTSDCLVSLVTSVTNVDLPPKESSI
# T7 sequence (P29597 whole entry): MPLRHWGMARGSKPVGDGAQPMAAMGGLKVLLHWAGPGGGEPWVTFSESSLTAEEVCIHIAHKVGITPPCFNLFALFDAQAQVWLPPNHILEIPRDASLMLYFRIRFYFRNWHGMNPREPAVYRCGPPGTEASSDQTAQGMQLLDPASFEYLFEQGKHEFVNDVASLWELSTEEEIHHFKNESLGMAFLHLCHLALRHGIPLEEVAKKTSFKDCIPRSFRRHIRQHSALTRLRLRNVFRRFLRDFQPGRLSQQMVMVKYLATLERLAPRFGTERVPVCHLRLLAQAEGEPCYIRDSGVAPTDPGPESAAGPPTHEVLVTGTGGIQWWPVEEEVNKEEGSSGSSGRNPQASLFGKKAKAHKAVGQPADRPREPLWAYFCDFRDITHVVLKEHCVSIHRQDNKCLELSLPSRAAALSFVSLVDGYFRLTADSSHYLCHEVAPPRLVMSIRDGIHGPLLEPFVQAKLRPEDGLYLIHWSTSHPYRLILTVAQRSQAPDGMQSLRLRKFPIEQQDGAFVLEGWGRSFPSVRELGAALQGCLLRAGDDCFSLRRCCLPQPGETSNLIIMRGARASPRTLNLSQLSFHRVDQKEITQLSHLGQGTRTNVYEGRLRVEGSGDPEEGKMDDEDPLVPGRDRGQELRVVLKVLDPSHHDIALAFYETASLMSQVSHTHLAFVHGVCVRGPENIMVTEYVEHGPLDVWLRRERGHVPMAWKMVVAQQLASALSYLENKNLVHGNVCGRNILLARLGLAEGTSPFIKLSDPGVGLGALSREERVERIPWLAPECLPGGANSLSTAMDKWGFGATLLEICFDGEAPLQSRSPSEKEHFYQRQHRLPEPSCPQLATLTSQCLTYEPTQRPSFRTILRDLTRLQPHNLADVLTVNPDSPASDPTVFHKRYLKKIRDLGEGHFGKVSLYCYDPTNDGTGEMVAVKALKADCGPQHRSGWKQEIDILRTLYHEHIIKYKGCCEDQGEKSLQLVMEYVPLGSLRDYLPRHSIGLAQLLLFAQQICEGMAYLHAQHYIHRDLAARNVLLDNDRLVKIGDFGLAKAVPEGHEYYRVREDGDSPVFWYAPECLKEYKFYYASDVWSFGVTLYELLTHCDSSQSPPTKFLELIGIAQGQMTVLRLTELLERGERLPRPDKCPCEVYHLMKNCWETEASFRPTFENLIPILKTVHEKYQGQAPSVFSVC
# T6 sequence (Q5TCX8 whole entry): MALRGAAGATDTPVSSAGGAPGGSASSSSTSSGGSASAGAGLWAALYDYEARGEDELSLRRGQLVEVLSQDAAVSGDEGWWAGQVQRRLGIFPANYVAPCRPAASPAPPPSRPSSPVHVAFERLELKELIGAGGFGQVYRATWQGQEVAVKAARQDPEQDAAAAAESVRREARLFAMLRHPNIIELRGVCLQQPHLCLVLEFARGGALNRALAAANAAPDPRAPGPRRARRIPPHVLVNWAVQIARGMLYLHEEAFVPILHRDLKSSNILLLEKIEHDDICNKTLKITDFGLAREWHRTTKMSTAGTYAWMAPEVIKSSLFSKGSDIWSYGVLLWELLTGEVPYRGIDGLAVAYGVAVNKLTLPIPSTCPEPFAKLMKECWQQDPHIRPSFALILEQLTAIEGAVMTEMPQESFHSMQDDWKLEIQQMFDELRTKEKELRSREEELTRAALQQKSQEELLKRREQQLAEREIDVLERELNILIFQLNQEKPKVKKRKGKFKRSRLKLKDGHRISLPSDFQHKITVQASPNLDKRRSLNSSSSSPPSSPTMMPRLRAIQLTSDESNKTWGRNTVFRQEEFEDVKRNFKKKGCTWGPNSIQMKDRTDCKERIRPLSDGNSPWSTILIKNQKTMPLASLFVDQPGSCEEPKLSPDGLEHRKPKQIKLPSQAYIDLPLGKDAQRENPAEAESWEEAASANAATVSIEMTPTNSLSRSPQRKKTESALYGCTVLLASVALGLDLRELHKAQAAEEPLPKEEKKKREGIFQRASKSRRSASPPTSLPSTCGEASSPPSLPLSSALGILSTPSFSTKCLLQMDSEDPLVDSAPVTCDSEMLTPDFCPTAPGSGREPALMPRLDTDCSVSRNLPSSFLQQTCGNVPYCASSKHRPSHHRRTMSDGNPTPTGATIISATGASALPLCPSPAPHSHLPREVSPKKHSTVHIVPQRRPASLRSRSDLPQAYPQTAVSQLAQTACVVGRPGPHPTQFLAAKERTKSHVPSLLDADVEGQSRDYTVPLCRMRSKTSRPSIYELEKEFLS
# T9 sequence (P41279 whole entry): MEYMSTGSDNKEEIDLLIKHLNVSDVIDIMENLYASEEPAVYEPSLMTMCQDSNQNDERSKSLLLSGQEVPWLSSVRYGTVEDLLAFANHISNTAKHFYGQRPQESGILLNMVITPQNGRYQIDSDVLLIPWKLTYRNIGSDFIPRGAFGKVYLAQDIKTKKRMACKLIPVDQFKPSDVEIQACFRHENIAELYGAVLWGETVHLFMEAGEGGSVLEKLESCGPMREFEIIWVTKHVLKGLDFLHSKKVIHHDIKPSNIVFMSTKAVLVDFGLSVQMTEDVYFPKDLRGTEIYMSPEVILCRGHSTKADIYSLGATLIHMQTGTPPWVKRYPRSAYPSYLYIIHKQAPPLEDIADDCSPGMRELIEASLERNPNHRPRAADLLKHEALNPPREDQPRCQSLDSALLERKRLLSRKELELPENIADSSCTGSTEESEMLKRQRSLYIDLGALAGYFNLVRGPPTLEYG
compound,measurement,setting,value
CNC(=O)c1ccc2c(c1)C(=O)c1ccc(Nc3ccc(F)c(NC(=O)C4CC4)c3)cc1CC2 [Compound 2015],remaining activity at 0.2 µM,"340 wild-type kinases [1]; 0.2 µM 2015, read-out: AuroraB residual activity",120%
same,remaining activity at 1 µM,"340 wild-type kinases [1]; 1 µM 2015, read-out: AuroraB residual activity",112%
same,remaining activity at 0.2 µM,"340 wild-type kinases [1]; AuroraB, 0.2 µM, read-out: residual activity",120%
same,remaining activity at 1 µM,"340 wild-type kinases [1]; AuroraB, 1 µM, read-out: residual activity",112%
same,remaining activity at 0.2 µM,"340 wild-type kinases [2]; 0.2 µM 2015, read-out: SRC residual activity",105%
same,remaining activity at 1 µM,"340 wild-type kinases [2]; 1 µM 2015, read-out: SRC residual activity",95.5%
same,remaining activity at 0.2 µM,"340 wild-type kinases [2]; SRC, 0.2 µM, read-out: residual activity",105%
same,remaining activity at 1 µM,"340 wild-type kinases [2]; SRC, 1 µM, read-out: residual activity",95.5%
same,remaining activity at 0.2 µM,"340 wild-type kinases [3]; 0.2 µM 2015, read-out: MINK1 residual activity",88.4%
same,remaining activity at 1 µM,"340 wild-type kinases [3]; 1 µM 2015, read-out: MINK1 residual activity",84.4%
same,remaining activity at 0.2 µM,"340 wild-type kinases [3]; MINK1, 0.2 µM, read-out: residual activity",88.4%
same,remaining activity at 1 µM,"340 wild-type kinases [3]; MINK1, 1 µM, read-out: residual activity",84.4%
same,remaining activity at 0.2 µM,"340 wild-type kinases [4]; 0.2 µM 2015, read-out: ACVR2B residual activity",81.6%
same,remaining activity at 1 µM,"340 wild-type kinases [4]; 1 µM 2015, read-out: ACVR2B residual activity",82.3%
same,remaining activity at 0.2 µM,"340 wild-type kinases [4]; ACVR2B, 0.2 µM, read-out: residual activity",81.7%
same,remaining activity at 1 µM,"340 wild-type kinases [4]; ACVR2B, 1 µM, read-out: residual activity",82.3%
same,remaining activity at 0.2 µM,"340 wild-type kinases [5]; 0.2 µM 2015, read-out: ACVR2A residual activity",119%
same,remaining activity at 1 µM,"340 wild-type kinases [5]; 1 µM 2015, read-out: ACVR2A residual activity",104%
same,remaining activity at 0.2 µM,"340 wild-type kinases [5]; ACVR2A, 0.2 µM, read-out: residual activity",119%
same,remaining activity at 1 µM,"340 wild-type kinases [5]; ACVR2A, 1 µM, read-out: residual activity",104%
same,remaining activity at 0.2 µM,"340 wild-type kinases [6]; 0.2 µM 2015, read-out: MLK4 residual activity",96.4%
same,remaining activity at 1 µM,"340 wild-type kinases [6]; 1 µM 2015, read-out: MLK4 residual activity",87.1%
same,remaining activity at 0.2 µM,"340 wild-type kinases [6]; MLK4, 0.2 µM, read-out: residual activity",96.4%
same,remaining activity at 1 µM,"340 wild-type kinases [6]; MLK4, 1 µM, read-out: residual activity",87.1%
same,remaining activity at 0.2 µM,"340 wild-type kinases [7]; 0.2 µM 2015, read-out: TYK2 residual activity",103%
same,remaining activity at 1 µM,"340 wild-type kinases [7]; 1 µM 2015, read-out: TYK2 residual activity",96.3%
same,remaining activity at 0.2 µM,"340 wild-type kinases [7]; TYK2, 0.2 µM, read-out: residual activity",103%
same,remaining activity at 1 µM,"340 wild-type kinases [7]; TYK2, 1 µM, read-out: residual activity",96.3%
same,remaining activity at 0.2 µM,"340 wild-type kinases [8]; 0.2 µM 2015, read-out: MARK4 residual activity",94.8%
same,remaining activity at 1 µM,"340 wild-type kinases [8]; 1 µM 2015, read-out: MARK4 residual activity",84.1%
same,remaining activity at 0.2 µM,"340 wild-type kinases [8]; MARK4, 0.2 µM, read-out: residual activity",94.8%
same,remaining activity at 1 µM,"340 wild-type kinases [8]; MARK4, 1 µM, read-out: residual activity",84.1%
same,remaining activity at 0.2 µM,"340 wild-type kinases [9]; 0.2 µM 2015, read-out: COT residual activity",98.6%
same,remaining activity at 1 µM,"340 wild-type kinases [9]; 1 µM 2015, read-out: COT residual activity",97.4%
same,remaining activity at 0.2 µM,"340 wild-type kinases [9]; COT, 0.2 µM, read-out: residual activity",98.6%
same,remaining activity at 1 µM,"340 wild-type kinases [9]; COT, 1 µM, read-out: residual activity",97.4%
same,remaining activity at 0.2 µM,"340 wild-type kinases [10]; 0.2 µM 2015, read-out: ERK7 residual activity",93%
same,remaining activity at 1 µM,"340 wild-type kinases [10]; 1 µM 2015, read-out: ERK7 residual activity",82.2%
same,remaining activity at 0.2 µM,"340 wild-type kinases [10]; ERK7, 0.2 µM, read-out: residual activity",93%
same,remaining activity at 1 µM,"340 wild-type kinases [10]; ERK7, 1 µM, read-out: residual activity",82.2%
same,remaining activity at 0.2 µM,"340 wild-type kinases [11]; 0.2 µM 2015, read-out: EIF2AK2 residual activity",84.5%
same,remaining activity at 1 µM,"340 wild-type kinases [11]; 1 µM 2015, read-out: EIF2AK2 residual activity",85.2%
same,remaining activity at 0.2 µM,"340 wild-type kinases [11]; EIF2AK2, 0.2 µM, read-out: residual activity",84.5%
same,remaining activity at 1 µM,"340 wild-type kinases [11]; EIF2AK2, 1 µM, read-out: residual activity",85.2%
